Data published in patent publication US8716285B2, “N-hydroxy-benzamids for the treatment of cancer” (Hoffmann-La Roche Inc., priority 2010, dated 2014).

Test system: RPMI-8226 cells
Assay: Growth inhibitory synergy with Velcade, WST/CCK-8 assay
Type: cell-based
Conditions: 72 h
Description: Cells were seeded in 96-well culture plates (200 μl/well at different seeding concentrations depending on cell type) and incubated overnight at 37° C. in 5% CO2. After adding compound dilutions to the cells (DMSO concentration kept below 0.5%), the cells were incubated at 37° C. in 5% CO2 for 72 hours. The effects on proliferation were determined by addition of CCK-8 reagent (Dojindo) according to the manufacturer's instruction, followed by incubation for 2 hours at 37° C. in 5% CO2, and finally recording the absorbance at 450 nm using an ELISA plate reader.
Novel compounds were tested for their synergistic effect with Velcade in multiple myeloma cells in vitro. Briefly, the multiple myeloma cells (RPMI-8226, OPM-2, or NCI-H929) were seeded into 96 well plate at 18000-20000 cells per well. The GI50s of these compounds against myeloma cells were measured by WST assay. […] The tested compound and Velcade used the same dilution factor in the combination treatment. […] After 72 h treatment, cell viability was measured at 450 nm by SpectraMAX190 after 2 h incubation with CCK8 reagent at 37° C. Synergy between the tested compounds and velcade was analyzed by software Calcusyn. […]
Notes: Chou and Talalay in 1983 proposed the designation of CI (combination index)=1 as the additive effect. […] It can be calculated by the equation above. […]

O=C(NO)c1ccc2c(c1)CC(Nc1nccc(-c3cccnc3)n1)CC2 (stereo not shown) [Example 24, 7-(4-Pyridin-3-yl-pyrimidin-2-ylamino)-5,6,7,8-tetrahydro-naphthalene-2-carboxylic acid hydroxyamide]
synergy with Velcade in cell growth inhibition: synergized with Velcade
